Source: ChEMBL document CHEMBL3045686, “Insecticidal Activity of N-Acyl-N-(4-aryloxybenzyl)pyrazole-5-carboxamides” (2003)

Test system: Spodoptera litura
Assay: Insecticidal activity Spodoptera litura third-instar larvae fed on compound pre-treated cabbage leaf disks assessed as insect mortality at 200 ppm measured 5 days after compound treatment
Format: functional
Conditions: foliar

Row | SMILES | mortality at 200 ppm
1 | CCCCCc1cc(C(=O)N(Cc2ccc(Oc3ccc(C#N)cc3)cc2)C(C)=O)n(C)n1 | < 80%
2 | CC(=O)N(Cc1ccc(Oc2ccc(C#N)cc2)cc1)C(=O)c1cc(C(C)(C)C)nn1C | < 80%
3 | CC(=O)N(Cc1ccc(Oc2ccc(C#N)cc2)cc1)C(=O)c1cc(CC(C)C)nn1C | > 80%
4 | CCCCc1cc(C(=O)N(Cc2ccc(Oc3ccc(C#N)cc3)cc2)C(C)=O)n(C)n1 | < 80%
5 | CCc1cc(C(=O)N(Cc2ccc(Oc3ccccc3)cc2)C(C)=O)n(C)n1 | < 80%
6 | CCc1cc(C(=O)N(Cc2ccc(Oc3ccc(OC)cc3)cc2)C(C)=O)n(C)n1 | < 80%
7 | CCc1cc(C(=O)N(Cc2ccc(Oc3ccc(C)cc3)cc2)C(C)=O)n(C)n1 | > 80%
8 | CCc1cc(C(=O)N(Cc2ccc(Oc3ccc(Cl)cc3)cc2)C(C)=O)n(C)n1 | > 80%
9 | CCc1cc(C(=O)N(Cc2ccc(Oc3ccc(F)cc3)cc2)C(C)=O)n(C)n1 | > 80%
10 | CCCCOc1cc(C(=O)N(Cc2ccc(Oc3ccc(C#N)cc3)cc2)C(C)=O)n(C)n1 | > 80%

Test system: Spodoptera litura
Assay: Insecticidal activity Spodoptera litura third-instar larvae fed on compound pre-treated cabbage leaf disks assessed as insect mortality at 50 ppm measured 5 days after compound treatment
Format: functional
Conditions: foliar

Row | SMILES | mortality at 50 ppm
11 | CC(=O)N(Cc1ccc(Oc2ccc(C#N)cc2)cc1)C(=O)c1cc(OC(C)C)nn1C | > 80%
12 | CCOc1cc(C(=O)N(Cc2ccc(Oc3ccc(C#N)cc3)cc2)C(C)=O)n(C)n1 | > 80%
13 | COc1cc(C(=O)N(Cc2ccc(Oc3ccc(C#N)cc3)cc2)C(C)=O)n(C)n1 | > 80%
14 | CC(=O)N(Cc1ccc(Oc2ccc(C#N)cc2)cc1)C(=O)c1cc(C(C)C)nn1C | > 80%
15 | CC(=O)N(Cc1ccc(Oc2ccc(C#N)cc2)cc1)C(=O)c1cc(C)nn1C | > 80%
16 | CCc1cc(C(=O)N(Cc2ccc(Oc3ccc(C#N)cc3)cc2)C(=O)C(C)(C)C)n(C)n1 | > 80%
17 | CCc1cc(C(=O)NCc2ccc(Oc3ccc(C#N)cc3)cc2)n(C)n1 | > 80%

Test system: Spodoptera litura
Assay: Insecticidal activity Spodoptera litura third-instar larvae fed on compound pre-treated cabbage leaf disks assessed as insect mortality at 13 ppm measured 5 days after compound treatment
Format: functional
Conditions: foliar

Row | SMILES | mortality at 13 ppm
18 | CCC(C)c1cc(C(=O)N(Cc2ccc(Oc3ccc(C#N)cc3)cc2)C(C)=O)n(C)n1 (stereo unspecified) | > 80%
19 | CC(=O)N(Cc1ccc(Oc2ccc(C#N)cc2)cc1)C(=O)c1cc(C2CC2)nn1C | > 80%
20 | CCCc1cc(C(=O)N(Cc2ccc(Oc3ccc(C#N)cc3)cc2)C(C)=O)n(C)n1 | > 80%
21 | CCc1cc(C(=O)N(Cc2ccc(Oc3ccc(C#N)cc3)cc2)C(=O)C(C)CC)n(C)n1 (stereo unspecified) | > 80%
22 | CCc1cc(C(=O)N(Cc2ccc(Oc3ccc(C#N)cc3)cc2)C(=O)CC(C)C)n(C)n1 | > 80%
23 | CCCCC(=O)N(Cc1ccc(Oc2ccc(C#N)cc2)cc1)C(=O)c1cc(CC)nn1C | > 80%
24 | CCc1cc(C(=O)N(Cc2ccc(Oc3ccc(C#N)cc3)cc2)C(=O)C2CC2)n(C)n1 | > 80%
25 | CCCC(=O)N(Cc1ccc(Oc2ccc(C#N)cc2)cc1)C(=O)c1cc(CC)nn1C | > 80%
26 | CCC(=O)N(Cc1ccc(Oc2ccc(C#N)cc2)cc1)C(=O)c1cc(CC)nn1C | > 80%
27 | CCc1cc(C(=O)N(Cc2ccc(Oc3ccc([N+](=O)[O-])cc3)cc2)C(C)=O)n(C)n1 | > 80%
28 | CCc1cc(C(=O)N(Cc2ccc(Oc3ccc(C(F)(F)F)cc3)cc2)C(C)=O)n(C)n1 | > 80%

Test system: Spodoptera litura
Assay: Insecticidal activity Spodoptera litura third-instar larvae fed on compound pre-treated cabbage leaf disks assessed as insect mortality at 3.1 ppm measured 5 days after compound treatment
Format: functional
Conditions: foliar

Row | SMILES | mortality at 3.1 ppm
29 | CCc1cc(C(=O)N(Cc2ccc(Oc3ccc(C#N)cc3)cc2)C(C)=O)n(C)n1 | > 80%
30 | CCc1cc(C(=O)N(Cc2ccc(Oc3ccc(C#N)cc3)cc2)C(=O)C(C)C)n(C)n1 | > 80%
31 | CCc1cc(C(=O)N(Cc2ccc(Oc3ccc(SC)cc3)cc2)C(C)=O)n(C)n1 | > 80%
